What was measured:
Rat NHE3 [1] = biological target: T1, Rat NHE3 (Rattus norvegicus, UniProt P26433); experiment: Cell-based NHE3 activity under prompt conditions (OK cells, BCECF pH recovery), rat NHE3; conditions: Table E5; 001 free base, 002-005 dihydrochloride salt
T1 construct: expressed in transfected cells; host or cells: Opossum kidney (OK) cells (ATCC), electroporation
Outline: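 Read-out: initial rate of BCECF-reported intracellular pH recovery via Na+/H+ antiport, fitted to pIC50. Opossum kidney cells transfected with rat or human NHE3; NH4Cl prepulse with 5 μM BCECF-AM, 30 min RT; Na+-free choline buffer 10 min.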

Rat NHE3 [2] = biological target: T1, Rat NHE3; experiment: Cell-based NHE3 activity under persistent conditions (60 min incubation, washout), rat NHE3; conditions: Table E5; 40 min after compound washout; dihydrochloride salt
Experimental: Cell-based activity of NHE3 Activity under ‘Persistent’ Conditions. The ability of compounds to inhibit Rat NHE3-mediated Na^+-dependent H^+ antiport after application and washout was measured using a modification of the pH sensitive dye method described above. Opossum kidney (OK) cells were obtained from the ATCC and propagated per their instructions. The rat NHE3 gene was introduced into OK cells via electroporation, and cells were seeded into 96 well plates and grown overnight. Medium was aspirated from the wells, cells were washed twice with NaCl-HEPES buffer (100 mM NaCl, 50 mM HEPES, 10 mM glucose, 5 mM KCl, 2 mM CaCl2, 1 mM MgCl2, pH 7.4), then overlayed with NaCl-HEPES buffer containing 0-30 μM test compound.
After a 60 min incubation, the test drug containing buffer was aspirated from the cells, cells were washed twice with NaCl-HEPES buffer without drug, then incubated for 30 min at room temperature with NH4Cl-HEPES buffer (20 mM NH4Cl, 80 mM NaCl, 50 mM HEPES, 5 mM KCl, 2 mM CaCl2, 1 mM MgCl2, pH 7.4) containing 5 μM BCECF-AM. Cells were washed twice with Ammonium free, Na^+-free HEPES (100 mM choline, 50 mM HEPES, 10 mM glucose, 5 mM KCl, 2 mM CaCl2, 1 mM MgCl2, pH 7.4) and incubated in the same buffer for 10 minutes at room temperature to lower intracellular pH. […]

Human NHE3 = biological target: T2, Human NHE3 (Homo sapiens, UniProt P48764); experiment: Cell-based NHE3 activity under persistent conditions (60 min incubation, washout), human NHE3; conditions: Table E5; dihydrochloride salt
T2 construct: expressed in transfected cells; host or cells: Opossum kidney (OK) cells (ATCC), electroporation
T2 sequence (P48764 26-834): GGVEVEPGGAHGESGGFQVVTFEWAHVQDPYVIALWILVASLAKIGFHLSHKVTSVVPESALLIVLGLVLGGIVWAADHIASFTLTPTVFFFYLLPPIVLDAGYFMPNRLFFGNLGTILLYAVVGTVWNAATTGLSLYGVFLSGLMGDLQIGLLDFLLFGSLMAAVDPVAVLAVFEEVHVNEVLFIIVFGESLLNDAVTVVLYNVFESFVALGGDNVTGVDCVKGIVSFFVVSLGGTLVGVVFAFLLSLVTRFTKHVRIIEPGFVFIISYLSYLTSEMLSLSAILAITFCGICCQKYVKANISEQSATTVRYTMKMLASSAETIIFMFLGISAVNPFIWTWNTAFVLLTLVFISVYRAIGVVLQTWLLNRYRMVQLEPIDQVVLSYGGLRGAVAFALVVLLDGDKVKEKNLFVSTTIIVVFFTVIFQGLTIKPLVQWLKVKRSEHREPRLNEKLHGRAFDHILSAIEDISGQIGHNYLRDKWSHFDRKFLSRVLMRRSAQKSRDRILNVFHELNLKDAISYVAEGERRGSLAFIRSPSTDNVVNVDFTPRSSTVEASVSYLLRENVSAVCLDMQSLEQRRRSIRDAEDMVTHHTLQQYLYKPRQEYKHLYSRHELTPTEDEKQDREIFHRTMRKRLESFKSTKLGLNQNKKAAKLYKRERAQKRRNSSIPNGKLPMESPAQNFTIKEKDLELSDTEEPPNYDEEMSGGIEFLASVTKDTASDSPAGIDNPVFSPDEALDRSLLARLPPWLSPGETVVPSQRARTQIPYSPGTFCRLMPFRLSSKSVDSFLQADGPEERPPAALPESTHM

[3] = test system: absorption of sodium from the intestinal lumen; experiment: Fecal form score (FFS) 16 h after oral dose in rats; format: in vivo, rat; conditions: in words
Outline: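 Fecal form was scored at 16 h post-dose on a 1–5 wetness scale (normal pellet to liquid stream), with two independent observations averaged across six rats per group. Animals were 8-week-old Sprague-Dawley rats given test compound or water orally in the late afternoon and kept in metabolic cages.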

T1 sequence (P26433 29-831): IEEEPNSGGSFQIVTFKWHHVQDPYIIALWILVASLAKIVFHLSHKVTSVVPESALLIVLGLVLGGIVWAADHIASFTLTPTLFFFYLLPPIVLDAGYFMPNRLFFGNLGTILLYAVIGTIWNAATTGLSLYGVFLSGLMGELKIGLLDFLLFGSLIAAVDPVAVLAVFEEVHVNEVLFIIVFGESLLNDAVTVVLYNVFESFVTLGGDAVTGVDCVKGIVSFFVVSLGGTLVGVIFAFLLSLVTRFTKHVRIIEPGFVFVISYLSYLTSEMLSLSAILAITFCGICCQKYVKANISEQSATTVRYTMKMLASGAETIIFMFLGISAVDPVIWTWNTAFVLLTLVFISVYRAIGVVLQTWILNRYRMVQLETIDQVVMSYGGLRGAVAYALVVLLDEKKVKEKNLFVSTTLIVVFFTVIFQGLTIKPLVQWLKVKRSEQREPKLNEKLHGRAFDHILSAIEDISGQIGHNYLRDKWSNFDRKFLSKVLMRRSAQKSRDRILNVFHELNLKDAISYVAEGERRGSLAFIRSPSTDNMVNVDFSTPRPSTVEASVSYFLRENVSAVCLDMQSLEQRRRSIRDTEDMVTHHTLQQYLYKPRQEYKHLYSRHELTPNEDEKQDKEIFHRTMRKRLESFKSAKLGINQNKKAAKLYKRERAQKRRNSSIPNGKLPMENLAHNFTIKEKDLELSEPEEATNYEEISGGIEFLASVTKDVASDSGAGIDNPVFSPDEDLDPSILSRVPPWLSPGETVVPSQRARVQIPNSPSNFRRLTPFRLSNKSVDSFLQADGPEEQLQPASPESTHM

| Structure (SMILES) | Rat NHE3 pIC50 Prompt (Rat NHE3 [1]) | Rat NHE3 pIC50 Persistent (Rat NHE3 [2]) | Human NHE3 pIC50 Persistent (Human NHE3) | effect on fecal form [3] |
| --- | --- | --- | --- | --- |
| CN1Cc2c(Cl)cc(Cl)cc2[C@@H](c2cccc(S(=O)(=O)NCCOCCOCCNC(=O)NCCCCNC(=O)NCCOCCOCCNS(=O)(=O)c3cccc([C@H]4CN(C)Cc5c(Cl)cc(Cl)cc54)c3)c2)C1 [Cpd 004] | 7.3 | 5.6 | 5.6 | no significant effect |
| CN1Cc2c(Cl)cc(Cl)cc2[C@H](c2cccc(S(=O)(=O)NCCOCCOCCNC(=O)NCCCCNC(=O)NCCOCCOCCNS(=O)(=O)c3cccc([C@@H]4CN(C)Cc5c(Cl)cc(Cl)cc54)c3)c2)C1 [Cpd 002] | 8 | 8.4 | 8.2 |  |
